PubChem BioAssay (NCI)
Values joined by “and” are separate entries in the source; they are usually repeats but may differ in a detail not shown here. Equal values may be shown once.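 A five-concentration, 48-hour dose response in 96-well plates underlies each endpoint, interpolated linearly between surrounding concentrations. At the GI50, growth is halved. The concentration for full growth arrest is given as TGI.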 Where a SMILES comes first, the peptide text is derived from it. The star is where a group is joined. Cbz = O=C(OCc1ccccc1)*; CH2Cl = ClC*

What was measured:
Experiment in all cases: NCI anticancer screen, dose series, 48 h
MDA-MB-435 = system: MDA-MB-435
BT-549 breast = system: BT-549 breast
OVCAR-8 ovarian = system: OVCAR-8 ovarian
MCF7 breast = system: MCF7 breast
SF-268 CNS = system: SF-268 CNS
LOX IMVI melanoma = system: LOX IMVI melanoma
CAKI-1 renal = system: CAKI-1 renal

Structure (SMILES)	GI50 (MDA-MB-435)	TGI (MDA-MB-435)	GI50 (BT-549 breast)	TGI (BT-549 breast)	GI50 (OVCAR-8 ovarian)	TGI (OVCAR-8 ovarian)	GI50 (MCF7 breast)	TGI (MCF7 breast)	GI50 (SF-268 CNS)	TGI (SF-268 CNS)	GI50 (LOX IMVI melanoma)	TGI (LOX IMVI melanoma)	GI50 (CAKI-1 renal)	TGI (CAKI-1 renal)
COc1ccc2c(c1)C(=O)c1c-2c(N2CCN(C(=O)CNCCNCCO)CC2)nc2ccccc12	8180 nM	28.5 µM	3670 nM	12.6 µM	10.2 µM	33.8 µM	1750 nM	3.5 µM	2970 nM	9.38 µM	2180 nM	4.72 µM	12.8 µM	35 µM
O=C1OCC2=C1C(c1cccc(Br)c1)c1cc3c(cc1N2CCO)CCC3 (stereo not drawn)	13.2 nM	0.0423 µM	209 nM	6.5 µM	0.14 µM	0.852 µM	25.7 nM	9.66 µM	109 nM	6.47 µM	119 nM	7.56 µM	0.22 µM	8.15 µM
COc1cc(Cn2c(-c3ccccc3)c(Cl)c3c2-c2oncc2CC3)cc(OC)c1	2260 nM	5.97 µM			15.9 µM	> 100 µM	3810 nM	> 100 µM	9610 nM	> 100 µM	3060 nM	12 µM	5.24 µM	> 100 µM
CC(C)CC(NC(=O)OCc1ccccc1)C(=O)NC(Cc1ccccc1)C(=O)CCl (stereo not drawn) (Cbz-Leu-Phe-CH2Cl; configuration not given here)		6.56 µM		6.16 µM		5.11 µM		7.85 µM		9.88 µM		2.08 µM		12.5 µM
COc1ccc(/C=C2/N=C(c3ccccc3)N(c3c(C)n(C)n(-c4ccccc4)c3=O)C2=O)cc1OC	> 100000 nM	> 100 µM			> 100 µM	> 100 µM	70500 nM	> 100 µM	> 100000 nM	> 100 µM	> 100000 nM	> 100 µM	37.1 µM	> 100 µM
COc1cc2c(cc1OCCCNC(=O)c1cccc3c(=O)c4ccccc4[nH]c13)N=C[C@@H]1CCCN1C2=O			< 10 nM	< 0.0437 µM	0.01 µM		< 24.2 nM	13.8 µM	< 21.6 nM	2.07 µM	< 10 nM		0.116 µM	0.571 µM
O=C(CSc1nc2ccccc2nc1-c1ccccc1)Nc1ccc(F)cc1	> 100000 nM	> 100 µM	24600 nM	66.5 µM	30 µM	> 100 µM	57200 nM	> 100 µM	41600 nM	> 100 µM	68000 nM	> 100 µM	> 100 µM	> 100 µM
COc1cc(F)ccc1-c1ncnc(Nc2cccc(CS(C)(=N)=O)c2)n1 (stereo not drawn)	1550 nM	> 100 µM	1070 nM	> 100 µM	1.16 µM	> 100 µM	414 nM	> 100 µM	707 nM	> 100 µM	373 nM	> 100 µM	1.92 µM	> 100 µM
Cn1cc(-c2csc(-c3c[nH]c4ccc(F)cc34)n2)c2cnccc21	1850 nM	3.31 µM	1630 nM	3.06 µM					1940 nM	3.58 µM			1.65 µM	3.05 µM
CCn1c2ccccc2c2cc(NC(=O)Nc3ccc([N+](=O)[O-])cc3C)ccc21	2620 nM	23.5 µM	2020 nM	6.46 µM	4.61 µM	37.7 µM	3700 nM	> 100 µM	12200 nM	> 100 µM	4980 nM	> 100 µM	4.35 µM	17.5 µM
Cn1cc(C2=C(c3cn(CCCCO)c4ccccc34)C(=O)NC2=O)c2ccccc21	8810 nM	> 25 µM	8270 nM	> 19.6 µM	8.61 µM	24.8 µM	4450 nM	> 25 µM	8630 nM	> 25 µM	5620 nM	> 25 µM	11.8 µM	> 25 µM
Cn1cc(NC(=O)Nc2cc(C(=O)Nc3cc(C(=O)Nc4ccc(S(=O)(=O)O)c5cc(S(=O)(=O)O)ccc45)n(C)c3)n(C)c2)cc1C(=O)Nc1cc(C(=O)Nc2ccc(S(=O)(=O)O)c3cc(S(=O)(=O)O)ccc23)n(C)c1		> 100 µM		> 100 µM		> 100 µM		> 100 µM		> 100 µM				
O=C(c1ccccc1Br)C(F)(F)F		> 100 µM		> 100 µM		> 100 µM		> 100 µM		> 100 µM		> 100 µM		> 100 µM
CCCN1C(=O)N(CCC)C2C1NC(=S)N2/N=C/C=C/c1ccccc1OC (stereo not drawn)			2770 nM	32.9 µM	1.56 µM	> 62.6 µM	390 nM	> 100 µM	1150 nM	53.4 µM	627 nM	21.3 µM	0.508 µM	97.5 µM
C=C(Cl)C(Br)(CCl)CCC(Br)C(C)(C)Cl (stereo not drawn)	2130 nM	8.65 µM and 4.27 µM	1990 nM	3.83 µM and 4.53 µM	2.26 µM	5.69 µM	4080 nM	7.13 µM and 15.6 µM		8.32 µM and 8.82 µM	1760 nM	3.73 µM and 4.22 µM	3.69 µM	8.08 µM and 10.2 µM
Clc1ccc2[nH]cc(-c3nnnn3-c3ccccc3)c2c1	1640 nM	4.16 µM	22200 nM	68.9 µM	29.5 µM	> 93.3 µM	29800 nM	> 100 µM	53100 nM	> 100 µM	10500 nM	> 53.5 µM		1.16 µM
CCOC(=O)C(Cc1ccc(CCCC(=O)NCCC(=O)Nc2ccc3nc(C)sc3c2)cc1)C(=O)OCC	26000 nM	76.5 µM	23700 nM	72.8 µM	20.1 µM	42.1 µM	22200 nM	64.3 µM	> 78000 nM	> 100 µM	33200 nM	> 100 µM	49.1 µM	> 100 µM
CO/N=C(\COc1ccc2c(c1)oc(=O)c1cc(OC)ccc12)c1ccc(OC)cc1	> 100000 nM	> 100 µM	> 100000 nM	> 100 µM	> 100 µM	> 100 µM	> 100000 nM	> 100 µM	> 100000 nM	> 100 µM	> 100000 nM	> 100 µM	> 100 µM	> 100 µM

Structure (SMILES)	GI50 (MDA-MB-435)	TGI (MDA-MB-435)	GI50 (BT-549 breast)	TGI (BT-549 breast)	GI50 (OVCAR-8 ovarian)	TGI (OVCAR-8 ovarian)	GI50 (MCF7 breast)	TGI (MCF7 breast)	GI50 (SF-268 CNS)	TGI (SF-268 CNS)	GI50 (LOX IMVI melanoma)	TGI (LOX IMVI melanoma)	GI50 (CAKI-1 renal)	TGI (CAKI-1 renal)
O=C(O)Cc1cc(Cl)ccc1O		> 100 µM		> 100 µM		> 100 µM		> 100 µM		> 100 µM		> 100 µM		> 100 µM
CC[C@H]1[C@@H]2C=C[C@@H]3[C@H]4C/C=C\C(=O)NCCC[C@@H]5NC(=O)/C(=C(O)/C=C/[C@@H]4C[C@@H]3[C@H]2C[C@H]1C)C5=O	982 nM	2.25 µM	1290 nM	2.74 µM	0.333 µM	1.37 µM	1750 nM	3.88 µM	448 nM	1.86 µM	662 nM	1.96 µM		
CCOC(=O)Nc1ccc(C)c(NC(=O)OCC)c1		> 100 µM				> 100 µM		> 100 µM		> 100 µM		> 100 µM		> 100 µM
Cc1c2c(C#N)nccc2c(C)c2c1c1ccccc1n2Cc1ccccc1		> 100 µM				> 100 µM		> 100 µM		> 100 µM		> 100 µM		> 100 µM
COc1c(OC[C@H](O)CN2CCOCC2)ccc2c3n(c(=NC(=O)c4cccnc4C)nc12)CCN3	14100 nM	> 50 µM	365 nM	46.6 µM	> 50 µM	> 50 µM	75.1 nM	> 50 µM	12400 nM	> 50 µM	1570 nM	> 50 µM	0.859 µM	> 50 µM
COc1cccc2c1C(=O)c1c(O)c3c(c(O)c1C2=O)C[C@](O)(C(=O)CO)C[C@H]3O[C@@H]1C[C@@H](NC(=O)CCCCCN(C)C2(c3ccc(F)cc3)CC3CCC2C3)[C@H](O)[C@@H](C)O1 (stereo partly drawn)	8670 nM	19.4 µM	5300 nM	14.2 µM	1.18 µM	3.94 µM	966 nM	2.7 µM	5380 nM	14.9 µM	5170 nM	13.1 µM	6.82 µM	13.3 µM
CCSc1ncnc2c1ncn2C1OC(CO)C(O)C1O (stereo not drawn)	482 nM	> 100 µM	729 nM	> 44.2 µM	0.296 µM	16 µM	288 nM	> 91.2 µM	1020 nM	> 100 µM	94.5 nM	16.8 µM	0.272 µM	> 55.4 µM
CCCC(=O)Nc1cc2c3c(c1)CCCN3CCC2		> 10 µM		> 10 µM		> 10 µM		> 10 µM		> 10 µM		> 10 µM		> 10 µM
NCCNc1c2c(c(NCCN)c3[nH]ccc13)C(=O)c1ccccc1C2=O	225 nM	0.692 µM	1220 nM	2.62 µM	0.151 µM	0.612 µM	29 nM	0.323 µM	170 nM	0.662 µM	11.1 nM	0.242 µM	< 0.042 µM	0.777 µM
Nc1c(C(=O)Nc2ccncc2)sc2nc3c(cc12)CCCCCCCC3	869 nM	1.6 µM	838 nM	1.6 µM	1.54 µM	50 µM	886 nM	1.75 µM	954 nM	1.74 µM	845 nM	1.56 µM	0.805 µM	1.49 µM
Cc1ccc(NC(=O)CC2CC2)cc1-c1ccc(C(=O)NCC2CC2)cc1	> 19500 nM	> 25 µM	> 25000 nM	> 25 µM	> 25 µM	> 25 µM	> 25000 nM	> 25 µM	> 25000 nM	> 25 µM	> 25000 nM	> 25 µM	> 25 µM	> 25 µM
CN(C)C(n1cc2c(c1)-c1ccc(Cl)cc1C(c1ccccc1F)=NC2)n1cc2c(c1)-c1ccc(Cl)cc1C(c1ccccc1F)=NC2		> 100 µM				> 100 µM		> 100 µM		> 100 µM		47.9 µM		> 100 µM
COc1cc2c3c(n(C)c(=O)c2cc1OC)-c1cc2c(cc1/C3=C\CN)OCO2	819 nM	33.8 µM		> 100 µM	0.774 µM	> 51.9 µM	236 nM	> 31.6 µM	433 nM	> 79.2 µM	133 nM	1.46 µM	0.132 µM	1.81 µM
Nc1nc(/C=C\c2ccc([N+](=O)[O-])s2)nc(N2CCCC2)n1	2240 nM	8.09 µM	7170 nM	20.9 µM	3.49 µM	22.5 µM	3160 nM	16.1 µM	2370 nM	13.6 µM	198 nM	2.41 µM	7.1 µM	24.6 µM
O=C1/C(=C/c2cccc(Cl)c2Cl)N=C(c2ccccc2)N1C1CC1	11100 nM	24.1 µM	9840 nM	24.1 µM	26.5 µM	> 50 µM	7980 nM	19.2 µM	10300 nM	22.3 µM	7110 nM	17.4 µM	14.8 µM	39.5 µM
O=C(Nc1ccncc1)C(=O)c1cn(S(=O)(=O)c2ccc(F)cc2)c2ccccc12			1580 nM	39.9 µM	4.33 µM	> 100 µM	779 nM	> 100 µM	4400 nM	> 100 µM	2220 nM	> 100 µM	2.19 µM	10.9 µM
CNCC#Cc1c(F)ccc2c1/C(=C/c1[nH]ccc1OC)C(=O)N2	156 nM	1.41 µM	338 nM	1.54 µM	0.161 µM	3.22 µM	210 nM	3.04 µM	279 nM	2.1 µM	142 nM	2.18 µM	0.0238 µM	0.521 µM
COc1cc(-c2cc(-c3cc4c([nH]c5ccccc54)c(-c4cc(OC)c(OC)c(OC)c4)n3)cc(-c3ccccc3)n2)cc(OC)c1OC			6740 nM	91.2 µM	4.01 µM	43.4 µM	3560 nM	20.8 µM	4960 nM	> 100 µM	4420 nM	26.5 µM	5.67 µM	> 100 µM
